Source: the supplement of paper PMC10307832

compound: CC(C)CCN1c2nc(Nc3cc(F)c(O)c(F)c3)ncc2N(C)C(=O)C1C [BI-D1870] + Nc1ncn([C@H]2C[C@H](O)[C@@H](CO)O2)c(=O)n1 [Decitabine] (partner 2 µM); assay: relative viability (nuclei count vs DMSO), 5 days (fraction); higher = more cells survive; conditions: first compound 4 µM
In short: (§1)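 Relative viability divides the nuclei count in treated wells by that in vehicle wells. Lung cancer cell lines were seeded in 1536-well plates, dosed by pin tool the next day, and fixed and stained after 5 days in one step with final 0.05% Triton X-100, 1% formaldehyde and 1 ug/ml Hoechst. Dosing was a single drug or a fixed anchor-drug dose plus five library-drug doses (not always all listed) in √10 steps, and values are medians of duplicate plates imaged at 4×.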

| Cell Line | relative viability |
| --- | --- |
| NCI-H1793 | 0.632 |
| NCI-H1944 | 0.432 |
| ABC-1 | 1.03 |
| NCI-H358 | 0.229 |

compound: CC(C)CCN1c2nc(Nc3cc(F)c(O)c(F)c3)ncc2N(C)C(=O)C1C [BI-D1870] + CC(=O)Nc1cccc(-n2c(=O)n(C3CC3)c(=O)c3c(Nc4ccc(I)cc4F)n(C)c(=O)c(C)c32)c1 [Trametinib] (partner 0.02 µM); assay: as above; conditions: first compound 0.04 µM
In short: as §1

| Cell Line | relative viability |
| --- | --- |
| NCI-H2342 | 0.794 |
| NCI-H727 | 0.41 |
| NCI-H1650 | 0.705 |
| NCI-H1993 | 0.404 |
| SW 1573 | 0.595 |
| NCI-H838 | 0.597 |
| LCLC-103H | 0.692 |
| NCI-H520 | 0.645 |
| NCI-H2126 | 0.557 |
| EMC-BAC-2 | 1.05 |
| NCI-H2085 | 0.547 |
| HCC-366 | 0.347 |
| NCI-H1666 | 0.847 |
| NCI-H596 | 0.95 |
| LK-2 | 0.864 |
| NCI-H2087 | 0.2 |

| Cell Line | relative viability |
| --- | --- |
| NCI-H1648 | 0.445 |
| SK-MES-1 | 0.541 |
| H3255 | 0.655 |
| COR-L23 | 0.75 |
| COR-L 105 | 0.428 |
| LOU-NH91 | 0.842 |
| ChaGo-K-1 | 0.899 |
| NCI-H2170 | 1 |
| NCI-H522 | 0.69 |
| SW 900 | 0.883 |
| NCI-H1395 | 1.09 |
| CAL-12T | 0.353 |
| NCI-H2228 | 0.54 |
| NCI-H1793 | 0.486 |
| NCI-H1944 | 0.443 |
| NCI-H358 | 0.147 |

same assay, conditions: first compound 0.1265 µM

| Cell Line | relative viability |
| --- | --- |
| NCI-H2342 | 0.805 |
| NCI-H727 | 0.406 |
| NCI-H1650 | 0.551 |
| NCI-H1993 | 0.505 |
| SW 1573 | 0.528 |
| NCI-H838 | 0.444 |
| LCLC-103H | 0.616 |
| NCI-H520 | 0.627 |
| NCI-H2126 | 0.598 |
| EMC-BAC-2 | 0.852 |
| NCI-H2085 | 0.411 |
| HCC-366 | 0.311 |
| NCI-H1666 | 0.798 |
| NCI-H596 | 0.773 |
| LK-2 | 0.8 |
| NCI-H2087 | 0.158 |

| Cell Line | relative viability |
| --- | --- |
| NCI-H1648 | 0.54 |
| SK-MES-1 | 0.532 |
| H3255 | 0.506 |
| COR-L23 | 0.536 |
| COR-L 105 | 0.409 |
| LOU-NH91 | 0.762 |
| ChaGo-K-1 | 0.753 |
| NCI-H2170 | 0.829 |
| NCI-H522 | 0.764 |
| SW 900 | 0.83 |
| NCI-H1395 | 0.972 |
| CAL-12T | 0.305 |
| NCI-H2228 | 0.367 |
| NCI-H1793 | 0.332 |
| NCI-H1944 | 0.362 |
| NCI-H358 | 0.117 |

same assay, conditions: first compound 0.4 µM

| Cell Line | relative viability |
| --- | --- |
| NCI-H2342 | 0.881 |
| NCI-H727 | 0.406 |
| NCI-H1650 | 0.573 |
| NCI-H1993 | 0.621 |
| SW 1573 | 0.552 |
| NCI-H838 | 0.536 |
| LCLC-103H | 0.653 |
| NCI-H520 | 0.683 |
| NCI-H2126 | 0.564 |
| EMC-BAC-2 | 0.89 |
| NCI-H2085 | 0.576 |
| HCC-366 | 0.328 |
| NCI-H1666 | 0.801 |
| NCI-H596 | 0.846 |
| LK-2 | 0.786 |
| NCI-H2087 | 0.189 |

| Cell Line | relative viability |
| --- | --- |
| SK-MES-1 | 0.518 |
| H3255 | 0.568 |
| COR-L23 | 0.589 |
| COR-L 105 | 0.487 |
| LOU-NH91 | 0.788 |
| ChaGo-K-1 | 0.874 |
| NCI-H2170 | 0.887 |
| NCI-H522 | 0.722 |
| SW 900 | 0.858 |
| NCI-H1395 | 1.01 |
| CAL-12T | 0.405 |
| NCI-H2228 | 0.362 |
| NCI-H1793 | 0.366 |
| NCI-H1944 | 0.382 |
| NCI-H358 | 0.136 |

same assay, conditions: first compound 1.265 µM

| Cell Line | relative viability |
| --- | --- |
| NCI-H2342 | 1 |
| NCI-H727 | 0.438 |
| NCI-H1650 | 0.64 |
| NCI-H1993 | 0.567 |
| SW 1573 | 0.497 |
| NCI-H838 | 0.667 |
| LCLC-103H | 0.7 |
| NCI-H520 | 0.612 |
| NCI-H2126 | 0.546 |
| EMC-BAC-2 | 1.13 |
| NCI-H2085 | 0.654 |
| HCC-366 | 0.39 |
| NCI-H1666 | 0.882 |
| NCI-H596 | 0.804 |
| LK-2 | 0.97 |
| NCI-H2087 | 0.246 |

| Cell Line | relative viability |
| --- | --- |
| NCI-H1648 | 0.552 |
| SK-MES-1 | 0.471 |
| H3255 | 0.661 |
| COR-L23 | 0.622 |
| COR-L 105 | 0.419 |
| LOU-NH91 | 0.761 |
| ChaGo-K-1 | 0.909 |
| NCI-H2170 | 0.939 |
| NCI-H522 | 0.836 |
| SW 900 | 0.762 |
| NCI-H1395 | 1.17 |
| CAL-12T | 0.351 |
| NCI-H2228 | 0.56 |
| NCI-H1793 | 0.631 |
| NCI-H1944 | 0.423 |
| NCI-H358 | 0.153 |

same assay, conditions: first compound 4 µM

| Cell Line | relative viability |
| --- | --- |
| NCI-H2342 | 1.01 |
| NCI-H727 | 0.429 |
| NCI-H1650 | 0.552 |
| NCI-H1993 | 0.42 |
| SW 1573 | 0.318 |
| NCI-H838 | 0.523 |
| LCLC-103H | 0.63 |
| NCI-H520 | 0.302 |
| NCI-H2126 | 0.539 |
| EMC-BAC-2 | 1.09 |
| NCI-H2085 | 0.524 |
| HCC-366 | 0.221 |
| NCI-H1666 | 0.878 |
| NCI-H596 | 0.762 |
| LK-2 | 0.649 |
| NCI-H2087 | 0.199 |
| NCI-H1648 | 0.49 |
| SK-MES-1 | 0.307 |
| H3255 | 0.599 |
| COR-L23 | 0.572 |
| COR-L 105 | 0.458 |
| LOU-NH91 | 0.651 |
| ChaGo-K-1 | 0.856 |
| NCI-H2170 | 0.874 |
| NCI-H522 | 0.776 |
